Common to all, as to type: cell-based
The test system of assay [1] is HT-29 (colorectal carcinoma). The assay can be described thus: In vitro cytotoxic activity (GI50), method (b), propidium iodide. To be noted: Homo sapiens, 96 hrs. As to the method: (§1) Row H was filled wih medium only (150 μL, negative control-medium).
Assay [2] deals with MDA-MB-231 (mammary gland adenocarcinoma). The description is as above. The settings on record: Homo sapiens, 96 hrs. Here is the method:
as §1

The test system of assay [3] is PC-3 (prostate adenocarcinoma). Described as above. The settings on record: 96 hrs. As to the method: as §1
Assay [4] relates to SF268 (CNS). The description is as above. The settings on record: Homo sapiens, SF-268, 96 hrs. Here is the method:
as §1

The test system of assay [5] is HT-29, SF-268, PC-3, MDA-MB-231. The assay can be described thus: Average GI50 over the four cell lines, method (b). The settings on record: for GI50: values > 30 not considered; for anticancer activity compared with Compound 1: four cell lines. As to the method: as §1

Regarding `CCN1c2c(O)cccc2C(=O)N(C/C=C(\C)CC/C=C(\C)CCC=C(C)C)c2cc(O)cc(O)c21` [Compound 14, 10-farnesyl-4,6,8-trihydroxy-5-ethyl-5,10-dihydro-dibenzo[b,e][1,4]diazepin-11-one], the GI50 in assay [1] was 2.04 µM; in assay [2], 2.16 µM; in assay [3], 1.15 µM; in assay [4] it was 0.76 µM; in assay [5], 1.53 µM.

For `CC(C)=CCCC1(C)OC1CC/C(C)=C/CN1C(=O)c2cccc(O)c2Nc2c(O)cc(O)cc21` (stereo not drawn) [Compound 17, 10-(3,7,11-trimethyl-6,7-epoxydodeca-2,10-dienyl)-4,6,8-trihydroxy-5,10-dihydro-dibenzo[b,e][1,4]diazepin-11-one], the GI50 in assay [1] is above 30 µM; in assay [2] it was above 30 µM; in assay [3], 18.7 µM; in assay [4], 13.4 µM; in assay [5], 16 µM.

Regarding `C/C(=C\CN1C(=O)c2cccc(O)c2Nc2c(O)cc(O)cc21)CC/C=C(\C)CCC1OC1(C)C` (stereo not drawn) [Compound 18], the GI50 in assay [1] is above 30 µM; in assay [2] it was above 30 µM; in assay [3] it was above 30 µM; in assay [4], 7.45 µM.

As for `CCCN1c2c(O)cccc2C(=O)N(C/C=C(\C)CC/C=C(\C)CCC=C(C)C)c2cc(O)cc(O)c21` [Compound 63, 10-farnesyl-4,6,8-trihydroxy-5-n-propyl-5,10-dihydro-dibenzo[b,e][1,4]diazepin-11-one], the GI50 in assay [1] was determined as 2.57 µM; in assay [2], 2.27 µM; in assay [3], 1.25 µM; in assay [4] it was 0.89 µM; in assay [5], 1.74 µM. Further, in assay [5], the “anticancer activity compared with Compound 1” value is listed as “better anticancer activity than Compound 1”.

Regarding `CCCCN1c2c(O)cccc2C(=O)N(C/C=C(\C)CC/C=C(\C)CCC=C(C)C)c2cc(O)cc(O)c21` [Compound 64, 10-farnesyl-4,6,8-trihydroxy-5-n-butyl-5,10-dihydro-dibenzo[b,e][1,4]diazepin-11-one], the GI50 in assay [1] turned out to be 2.5 µM; in assay [2] it was 1.39 µM; in assay [3], 1.14 µM; in assay [4] it was 0.56 µM; in assay [5] it was 1.4 µM. In addition, in assay [5], the “anticancer activity compared with Compound 1” value was “better anticancer activity than Compound 1”.

With `CCCCCCN1c2c(O)cccc2C(=O)N(C/C=C(\C)CC/C=C(\C)CCC=C(C)C)c2cc(O)cc(O)c21` [Compound 67, 10-farnesyl-4,6,8-trihydroxy-5-n-hexyl-5,10-dihydro-dibenzo[b,e][1,4]diazepin-11-one], the GI50 in assay [1] amounted to 2.44 µM; in assay [2], 1.92 µM; in assay [3], 1.33 µM; in assay [4], 0.53 µM; in assay [5] it was 1.55 µM. For the same molecule, the “anticancer activity compared with Compound 1” value in assay [5] is given as “better anticancer activity than Compound 1”.

`CCC(C)N1c2c(O)cccc2C(=O)N(C/C=C(\C)CC/C=C(\C)CCC=C(C)C)c2cc(O)cc(O)c21` (stereo not drawn) [Compound 77, 10-Farnesyl-4,6,8-trihydroxy-5-sec-butyl-5,10-dihydro-dibenzo[b,e][1,4]diazepin-11-one]: the GI50 in assay [1] was 13.9 µM; in assay [2], 5.62 µM; in assay [3], 17.1 µM; in assay [4] it was 3.31 µM; in assay [5], 9.98 µM.

For the molecule `CC(C)CCCC(C)CCCC(C)CCN1C(=O)c2cccc(O)c2N(C)c2c(O)cc(O)cc21` (stereo not drawn) [Compound 78, 10-(3,7,11-trimethyldodecyl)-4,6,8-trihydroxy-5-methyl-5,10-dihydro-dibenzo[b,e][1,4]diazepin-11-one], the GI50 amounted to 0.29 µM in assay [1]; 0.24 µM in assay [2]; 0.23 µM in assay [3]; 0.07 µM in assay [4]; 0.21 µM in assay [5]. In addition, the “anticancer activity compared with Compound 1” value in assay [5] was “better anticancer activity than Compound 1”.

In the case of `COC(C)(CCC=C(C)C)CCC/C(C)=C/CN1C(=O)c2cccc(O)c2N(C)c2c(O)cc(O)cc21` (stereo not drawn) [Compound 80, 10-(7-methoxy-3,7,11-trimethyldodeca-2,10-dienyl)-4,6,8-trihydroxy-5-methyl-5,10-dihydro-dibenzo[b,e][1,4]diazepin-11-one], the GI50 amounted to 1.43 µM in assay [1]; 1.02 µM in assay [2]; 1.8 µM in assay [3]; 0.33 µM in assay [4]; 1.14 µM in assay [5]. Also, the “anticancer activity compared with Compound 1” value in assay [5] was “better anticancer activity than Compound 1”.

Regarding `COC(C)(C)CCC/C(C)=C/CC/C(C)=C/CN1C(=O)c2cccc(O)c2Nc2c(O)cc(O)cc21` [Compound 82, 10-(11-methoxy-3,7,11-trimethyl-2,6-dodecadienyl)-4,6,8-trihydroxy-5,10-dihydro-dibenzo[b,e][1,4]diazepin-11-one], the concentration for 50% growth inhibition (GI50) in assay [1] came to 23.6 µM; in assay [2], 11 µM; in assay [3], 13.4 µM; in assay [4], 4.75 µM; in assay [5] it was 13.2 µM.

For the molecule `COC(C)(CCC=C(C)C)CCC/C(C)=C/CN1C(=O)c2cccc(O)c2Nc2c(O)cc(O)cc21` (stereo not drawn) [Compound 83], the GI50 in assay [1] came out at 19.6 µM; in assay [2], 6.71 µM; in assay [3] it was 13.2 µM; in assay [4], 9.74 µM; in assay [5], 12.3 µM.

Take `COC(C)(C)CCCC(C)(CCC/C(C)=C/CN1C(=O)c2cccc(O)c2Nc2c(O)cc(O)cc21)OC` (stereo not drawn) [Compound 84, 10-(7,11-dimethoxy-3,7,11-trimethyl-2-dodecenyl)-4,6,8-trihydroxy-5,10-dihydro-dibenzo[b,e][1,4]diazepin-11-one]: the GI50 in assay [1] was found to be 21.5 µM; in assay [2], 23.5 µM; in assay [3] it was 16.4 µM; in assay [4] it was 3.49 µM; in assay [5], 16.2 µM.

As to `CCN1c2c(O)cccc2C(=O)N(C/C=C(\C)CC/C=C(\C)CCCC(C)(C)OC)c2cc(O)cc(O)c21` [Compound 85, 10-(11-methoxy-3,7,11-trimethyl-2,6-dodecadienyl)-4,6,8-trihydroxy-5-ethyl-5,10-dihydro-dibenzo[b,e][1,4]diazepin-11-one], the GI50 came to 1.89 µM in assay [1]; 2.19 µM in assay [2]; 1.08 µM in assay [3]; 1.73 µM in assay [4]; 1.72 µM in assay [5]. In addition, the “anticancer activity compared with Compound 1” value in assay [5] is “better anticancer activity than Compound 1”.

With `CCN1c2c(O)cccc2C(=O)N(CC=C(C)CCCC(C)(CCCC(C)(C)OC)OC)c2cc(O)cc(O)c21` (stereo not drawn) [Compound 87, 10-(7,11-dimethoxy-3,7,11-trimethyl-2-dodecenyl)-4,6,8-trihydroxy-5-ethyl-5,10-dihydro-dibenzo[b,e][1,4]diazepin-11-one], the GI50 in assay [1] worked out at 1.83 µM; in assay [2], 2.4 µM; in assay [3], 1.39 µM; in assay [4], 0.91 µM; in assay [5], 1.63 µM. In assay [5], the “anticancer activity compared with Compound 1” value is “better anticancer activity than Compound 1”.

Regarding `CC(C)=CCCC(C)(O)CCC/C(C)=C/CN1C(=O)c2cccc(O)c2Nc2c(O)cc(O)cc21` (stereo not drawn) [Compound 89, 10-(7-hydroxy-3,7,11-trimethyldodeca-2,10-dienyl)-4,6,8-trihydroxy-5,10-dihydro-dibenzo[b,e][1,4]diazepin-11-one], the GI50 is above 30 µM in assay [1]; 25.3 µM in assay [2]; 13.5 µM in assay [3]; 13.7 µM in assay [4]; 17.5 µM in assay [5].

In general, GI50 refers to the concentration giving 50% growth inhibition.

These data come from US20060079512A1, “Dibenzodiazepinone analogues, processes for their production and their use as pharmaceuticals” (Ecopia BioSciences, Inc., priority 2003, published 2006).
